27 compounds from ChEMBL document CHEMBL5291721, “A preclinical secondary pharmacology resource illuminates target-adverse drug reaction associations of marketed drugs” (Nat Commun, 2023) can be followed below.

The target in one assay is Bile salt export pump (Homo sapiens, UniProt O95342). It counts as functional.
Another assay addresses T1, Adenosine receptor A1 (Homo sapiens, UniProt P30542).
T1 sequence (P30542 whole entry): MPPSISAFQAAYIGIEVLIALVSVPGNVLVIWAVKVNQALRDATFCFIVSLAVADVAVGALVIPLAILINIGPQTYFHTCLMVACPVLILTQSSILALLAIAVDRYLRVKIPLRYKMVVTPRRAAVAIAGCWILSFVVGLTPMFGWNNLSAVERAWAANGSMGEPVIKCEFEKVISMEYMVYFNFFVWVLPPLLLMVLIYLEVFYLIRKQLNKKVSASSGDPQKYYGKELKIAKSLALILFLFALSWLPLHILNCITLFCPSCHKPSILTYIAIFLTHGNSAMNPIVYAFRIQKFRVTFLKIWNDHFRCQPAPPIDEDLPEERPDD

Another assay addresses T2, Adenosine receptor A3 (Homo sapiens, UniProt P0DMS8).
T2 sequence (P0DMS8 whole entry): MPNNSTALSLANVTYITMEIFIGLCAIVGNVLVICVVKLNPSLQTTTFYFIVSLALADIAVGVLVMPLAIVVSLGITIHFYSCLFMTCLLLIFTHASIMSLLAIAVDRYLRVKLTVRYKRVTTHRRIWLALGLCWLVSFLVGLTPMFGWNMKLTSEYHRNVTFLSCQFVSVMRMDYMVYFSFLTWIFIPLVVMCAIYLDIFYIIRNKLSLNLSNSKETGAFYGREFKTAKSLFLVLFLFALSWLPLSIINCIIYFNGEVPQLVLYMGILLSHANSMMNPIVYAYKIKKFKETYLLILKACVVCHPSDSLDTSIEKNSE

The target of assay [1] is Gamma-aminobutyric acid receptor subunit alpha-1 (Rattus norvegicus, UniProt P62813). It counts as functional.
Assay [2] has as its target T3, Type-1 angiotensin II receptor (Homo sapiens, UniProt P30556).
T3 sequence (P30556 whole entry): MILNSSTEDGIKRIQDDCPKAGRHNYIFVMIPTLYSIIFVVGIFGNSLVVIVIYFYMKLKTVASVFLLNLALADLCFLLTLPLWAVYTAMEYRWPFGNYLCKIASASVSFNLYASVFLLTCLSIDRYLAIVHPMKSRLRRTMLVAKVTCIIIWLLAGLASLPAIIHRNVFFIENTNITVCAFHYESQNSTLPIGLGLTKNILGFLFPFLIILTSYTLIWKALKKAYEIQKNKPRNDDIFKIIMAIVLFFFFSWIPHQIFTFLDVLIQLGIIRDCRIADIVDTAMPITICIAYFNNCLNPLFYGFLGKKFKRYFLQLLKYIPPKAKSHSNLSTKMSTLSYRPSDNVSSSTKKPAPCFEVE

The target of assay [3] is T4, Prostaglandin G/H synthase 1 (Rattus norvegicus, UniProt Q63921).
T4 sequence (Q63921 whole entry): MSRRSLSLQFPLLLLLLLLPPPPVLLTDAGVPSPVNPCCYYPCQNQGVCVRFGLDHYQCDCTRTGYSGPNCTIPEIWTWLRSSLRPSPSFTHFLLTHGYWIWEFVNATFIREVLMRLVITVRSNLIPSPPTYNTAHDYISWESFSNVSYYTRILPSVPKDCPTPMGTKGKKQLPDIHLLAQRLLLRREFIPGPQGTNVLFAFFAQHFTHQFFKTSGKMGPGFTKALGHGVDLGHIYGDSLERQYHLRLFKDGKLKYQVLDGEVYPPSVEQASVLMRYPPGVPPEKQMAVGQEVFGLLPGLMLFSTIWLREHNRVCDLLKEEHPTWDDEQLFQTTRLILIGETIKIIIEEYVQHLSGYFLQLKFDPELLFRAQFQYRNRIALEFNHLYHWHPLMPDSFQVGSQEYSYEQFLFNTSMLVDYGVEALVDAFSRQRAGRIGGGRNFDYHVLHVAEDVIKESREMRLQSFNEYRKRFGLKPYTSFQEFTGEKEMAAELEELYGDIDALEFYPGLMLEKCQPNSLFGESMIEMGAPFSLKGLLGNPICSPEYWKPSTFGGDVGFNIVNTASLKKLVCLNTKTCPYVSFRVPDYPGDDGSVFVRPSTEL
The class given is functional.

In another assay the target is Melanocortin receptor 3 (Homo sapiens, UniProt P41968).
In assay [4] the target is T5, Cholecystokinin receptor type A (Homo sapiens, UniProt P32238).
T5 sequence (P32238 whole entry): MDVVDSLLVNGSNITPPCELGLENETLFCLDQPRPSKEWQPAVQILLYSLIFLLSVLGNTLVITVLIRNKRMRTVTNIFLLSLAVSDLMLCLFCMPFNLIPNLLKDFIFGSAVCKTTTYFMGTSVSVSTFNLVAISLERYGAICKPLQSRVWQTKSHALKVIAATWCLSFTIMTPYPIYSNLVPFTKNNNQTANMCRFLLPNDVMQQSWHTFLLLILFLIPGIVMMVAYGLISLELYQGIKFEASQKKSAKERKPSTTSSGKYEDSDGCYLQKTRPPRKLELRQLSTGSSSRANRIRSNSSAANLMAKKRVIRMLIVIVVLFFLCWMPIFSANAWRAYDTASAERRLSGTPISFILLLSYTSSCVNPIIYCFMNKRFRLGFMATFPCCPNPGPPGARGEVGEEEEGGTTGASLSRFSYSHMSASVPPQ

Assay [5] has as its target Neuronal acetylcholine receptor subunit alpha-4 (Homo sapiens, UniProt P43681).
In assay [6] the target is T6, Muscarinic acetylcholine receptor M2 (Homo sapiens, UniProt P08172).
T6 sequence (P08172 whole entry): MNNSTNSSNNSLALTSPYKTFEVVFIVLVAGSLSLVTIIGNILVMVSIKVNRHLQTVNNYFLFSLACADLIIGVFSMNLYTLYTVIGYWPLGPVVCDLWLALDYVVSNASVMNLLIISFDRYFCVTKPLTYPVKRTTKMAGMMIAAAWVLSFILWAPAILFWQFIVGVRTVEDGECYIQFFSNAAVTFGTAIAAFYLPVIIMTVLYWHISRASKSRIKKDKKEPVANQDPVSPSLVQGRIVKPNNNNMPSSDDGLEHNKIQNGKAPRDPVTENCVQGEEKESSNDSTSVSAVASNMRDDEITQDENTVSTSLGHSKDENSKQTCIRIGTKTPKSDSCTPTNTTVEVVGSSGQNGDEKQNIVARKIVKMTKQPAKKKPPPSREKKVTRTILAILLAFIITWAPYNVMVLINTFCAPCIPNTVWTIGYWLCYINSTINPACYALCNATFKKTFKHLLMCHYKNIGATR
The class given is functional, cell-based.
Also: assay procedure not described here.

Sequence of Gamma-aminobutyric acid receptor subunit alpha-1 (P62813 whole entry): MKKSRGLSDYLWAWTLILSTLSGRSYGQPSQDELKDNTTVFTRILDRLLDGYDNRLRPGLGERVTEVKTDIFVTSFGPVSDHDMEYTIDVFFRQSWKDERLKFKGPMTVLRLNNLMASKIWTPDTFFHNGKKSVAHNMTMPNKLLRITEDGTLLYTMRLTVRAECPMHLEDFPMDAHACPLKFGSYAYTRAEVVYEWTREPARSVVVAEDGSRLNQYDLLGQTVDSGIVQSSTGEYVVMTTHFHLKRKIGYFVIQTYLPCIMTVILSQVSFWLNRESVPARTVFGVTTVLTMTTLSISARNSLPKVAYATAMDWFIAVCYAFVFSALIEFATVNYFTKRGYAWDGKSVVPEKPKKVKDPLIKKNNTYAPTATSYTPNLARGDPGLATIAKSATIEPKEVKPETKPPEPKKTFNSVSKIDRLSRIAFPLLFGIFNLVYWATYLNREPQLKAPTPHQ
Sequence of Bile salt export pump (O95342 whole entry): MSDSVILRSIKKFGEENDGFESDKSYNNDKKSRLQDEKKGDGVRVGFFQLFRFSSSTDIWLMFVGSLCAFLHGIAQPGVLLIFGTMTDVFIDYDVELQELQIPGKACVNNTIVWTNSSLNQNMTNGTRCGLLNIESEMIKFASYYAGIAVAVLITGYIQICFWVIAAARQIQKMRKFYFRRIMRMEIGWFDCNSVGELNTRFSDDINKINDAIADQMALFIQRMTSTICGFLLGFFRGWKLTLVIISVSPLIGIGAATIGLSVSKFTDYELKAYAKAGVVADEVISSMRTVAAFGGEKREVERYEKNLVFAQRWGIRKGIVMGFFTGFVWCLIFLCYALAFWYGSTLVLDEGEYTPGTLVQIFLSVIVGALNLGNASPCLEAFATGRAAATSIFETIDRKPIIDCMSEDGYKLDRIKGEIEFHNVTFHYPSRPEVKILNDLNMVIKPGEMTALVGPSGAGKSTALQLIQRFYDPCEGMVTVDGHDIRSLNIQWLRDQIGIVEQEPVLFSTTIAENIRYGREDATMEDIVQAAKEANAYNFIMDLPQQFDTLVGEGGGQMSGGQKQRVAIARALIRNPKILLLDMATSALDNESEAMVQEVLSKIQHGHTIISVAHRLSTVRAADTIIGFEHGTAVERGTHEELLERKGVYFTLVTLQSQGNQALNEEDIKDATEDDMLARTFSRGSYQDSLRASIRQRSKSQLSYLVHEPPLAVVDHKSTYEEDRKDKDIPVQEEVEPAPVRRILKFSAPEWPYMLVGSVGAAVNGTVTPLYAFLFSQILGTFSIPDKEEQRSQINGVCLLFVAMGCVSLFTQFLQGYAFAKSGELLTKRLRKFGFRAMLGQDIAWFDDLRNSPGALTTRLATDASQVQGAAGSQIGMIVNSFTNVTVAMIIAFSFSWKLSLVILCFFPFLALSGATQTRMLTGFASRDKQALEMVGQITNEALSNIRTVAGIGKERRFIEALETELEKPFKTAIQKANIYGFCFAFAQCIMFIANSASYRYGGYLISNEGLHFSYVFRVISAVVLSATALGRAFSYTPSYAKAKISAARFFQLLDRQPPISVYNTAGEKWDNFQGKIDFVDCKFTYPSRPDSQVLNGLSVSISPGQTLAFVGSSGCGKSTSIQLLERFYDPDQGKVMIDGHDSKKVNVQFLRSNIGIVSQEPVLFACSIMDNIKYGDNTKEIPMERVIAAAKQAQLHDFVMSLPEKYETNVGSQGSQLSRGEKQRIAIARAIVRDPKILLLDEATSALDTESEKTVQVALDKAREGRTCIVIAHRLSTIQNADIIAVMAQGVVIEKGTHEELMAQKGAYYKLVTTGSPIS
Sequence of Neuronal acetylcholine receptor subunit alpha-4 (P43681 whole entry): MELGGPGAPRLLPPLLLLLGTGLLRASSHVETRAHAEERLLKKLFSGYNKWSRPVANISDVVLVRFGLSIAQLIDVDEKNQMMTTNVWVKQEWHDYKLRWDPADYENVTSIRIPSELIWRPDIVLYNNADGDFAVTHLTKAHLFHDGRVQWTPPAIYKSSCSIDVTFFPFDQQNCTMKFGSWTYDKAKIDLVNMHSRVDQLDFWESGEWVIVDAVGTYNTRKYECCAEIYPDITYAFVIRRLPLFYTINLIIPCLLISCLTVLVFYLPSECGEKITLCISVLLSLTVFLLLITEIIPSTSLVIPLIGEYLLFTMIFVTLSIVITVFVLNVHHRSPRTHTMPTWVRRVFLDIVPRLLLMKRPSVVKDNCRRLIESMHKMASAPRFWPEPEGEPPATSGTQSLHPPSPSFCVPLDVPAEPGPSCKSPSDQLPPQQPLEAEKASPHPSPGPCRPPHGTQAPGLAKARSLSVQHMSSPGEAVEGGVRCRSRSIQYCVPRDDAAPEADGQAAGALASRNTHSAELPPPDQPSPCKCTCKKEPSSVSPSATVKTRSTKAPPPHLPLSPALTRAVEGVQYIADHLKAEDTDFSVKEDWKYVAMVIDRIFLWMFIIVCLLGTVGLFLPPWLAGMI
Sequence of Melanocortin receptor 3 (P41968 whole entry): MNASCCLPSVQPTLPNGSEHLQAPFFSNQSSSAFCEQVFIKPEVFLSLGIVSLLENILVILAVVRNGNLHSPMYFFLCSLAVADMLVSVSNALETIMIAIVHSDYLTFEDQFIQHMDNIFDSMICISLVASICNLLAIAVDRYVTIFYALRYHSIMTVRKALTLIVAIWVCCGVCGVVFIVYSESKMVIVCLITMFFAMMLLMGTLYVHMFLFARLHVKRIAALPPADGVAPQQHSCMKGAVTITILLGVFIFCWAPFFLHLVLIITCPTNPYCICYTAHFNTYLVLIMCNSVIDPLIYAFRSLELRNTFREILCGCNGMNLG

As a reminder, the AC50 is the concentration at which the activity in the assay is half-maximal. With `CC(=O)OC[C@H]1O[C@@H](n2ccc(=O)[nH]c2=O)[C@H](OC(C)=O)[C@@H]1OC(C)=O` [URIDINE TRIACETATE], the AC50 on Bile salt export pump is over 300 µM.
Same read-out and setting: to `O=C1c2c(O)c(=O)ccn2N([C@@H]2c3ccccc3SCc3c2ccc(F)c3F)[C@@H]2COCCN12` [BALOXAVIR] belongs 24 µM.
As for `CCc1nn(CCCN2CCN(c3cccc(Cl)c3)CC2)c(=O)n1CCOc1ccccc1` [NEFAZODONE], the AC50 at Adenosine receptor A1 was over 30 µM; at Adenosine receptor A3, 11.9 µM; in assay [1], over 10 µM; in assay [2] it was over 30 µM; in assay [3], over 30 µM; at Melanocortin receptor 3 it was over 30 µM. For the same compound, the half-maximal activity concentration (AC50) in assay [4] was 13.3 µM; at Bile salt export pump, 6 µM.
Turning to `Cc1c(-c2ccccc2)oc2c(C(=O)OCCN3CCCCC3)cccc2c1=O` [FLAVOXATE], the AC50 at Bile salt export pump worked out at 220 µM.
For the compound `CC(=O)OCC(=O)[C@@]1(O)CC[C@H]2[C@@H]3CCC4=CC(=O)CC[C@]4(C)[C@H]3C(=O)C[C@@]21C` [CORTISONE ACETATE], the AC50 was over 30 µM in assay [1] and over 300 µM on Bile salt export pump.
Consider `CCOC(=O)N[C@@H]1CC[C@@H]2[C@@H](C1)C[C@H]1C(=O)O[C@H](C)[C@H]1[C@H]2/C=C/c1ccc(-c2cccc(F)c2)cn1` [VORAPAXAR], for which the concentration at half-maximal activity (AC50) at Bile salt export pump was determined as 2.2 µM.
As to `COc1cc(Nc2c(C#N)cnc3cc(OCCCN4CCN(C)CC4)c(OC)cc23)c(Cl)cc1Cl` [BOSUTINIB], the AC50 on Adenosine receptor A1 is over 30 µM; at Adenosine receptor A3 it was 10.3 µM; in assay [1] it was over 10 µM; in assay [2] it was over 30 µM; in [3], over 30 µM; on Melanocortin receptor 3 it was 18.1 µM. In addition, the AC50 in [4] is over 30 µM; in [5], over 10 µM.
Take `C#C[C@]1(O)CC[C@H]2[C@@H]3CCc4cc(O)ccc4[C@H]3CC[C@@]21C` [ETHINYL ESTRADIOL]: the AC50 on Adenosine receptor A1 was over 30 µM; at Adenosine receptor A3, 13.5 µM; in [1] it was over 10 µM; in [2], over 30 µM; in assay [3], 24.3 µM; in assay [6], over 10 µM. Besides, the AC50 was over 30 µM at Melanocortin receptor 3, over 30 µM in assay [4] and 38 µM on Bile salt export pump.
As to `O=C1CC[C@@]2(O)[C@H]3Cc4ccc(O)c5c4[C@@]2(CCN3CC2CC2)[C@H]1O5` [NALTREXONE], the half-maximal activity concentration (AC50) on Bile salt export pump is over 300 µM.
On the same count and under the same terms, to `Cc1cc2c(cc1CC(=O)c1sccc1S(=O)(=O)Nc1onc(C)c1Cl)OCO2` [SITAXENTAN] belongs 9.7 µM; to `CCC(=O)O[C@H]1[C@H](O[C@@H]2[C@@H](C)[C@H](O[C@H]3C[C@@](C)(OC)[C@@H](O)[C@H](C)O3)[C@@H](C)C(=O)O[C@H](CC)[C@@](C)(O)[C@H](O)[C@@H](C)C(=O)[C@H](C)C[C@@]2(C)O)O[C@H](C)C[C@@H]1N(C)C` [ERYTHROMYCIN PROPIONATE], over 300 µM.
`CN(C)CCCN1c2ccccc2CCc2ccc(Cl)cc21` [CLOMIPRAMINE]: the AC50 in [1], in [6] and in assay [5] was over 10 µM throughout.
Regarding `CC(C)C(=O)Nc1ccc([N+](=O)[O-])c(C(F)(F)F)c1` [FLUTAMIDE], the AC50 was over 30 µM on Adenosine receptor A1; over 30 µM on Adenosine receptor A3; over 10 µM in assay [1]; over 10 µM in assay [2]; over 10 µM in assay [3]; over 10 µM in [6]. Moreover, the AC50 (at Melanocortin receptor 3; in [4]; in assay [5]) was over 30 µM each time.
Turning to `CC(O)CO` (stereo not drawn) [PROPYLENE GLYCOL], the AC50 on Bile salt export pump was over 300 µM.
As for `OCCN1CCN(CCCN2c3ccccc3C=Cc3ccccc32)CC1` [OPIPRAMOL], the AC50 (at Adenosine receptor A1; on Adenosine receptor A3; in [1]; in [2]; in assay [3]; in assay [6]) was over 30 µM each time. For the same compound, the AC50 (at Melanocortin receptor 3; in [4]; in assay [5]) was over 30 µM throughout.
With `CC(C)OC(=O)[C@H](C)N[P@](=O)(OC[C@H]1O[C@@H](n2ccc(=O)[nH]c2=O)[C@](C)(F)[C@@H]1O)Oc1ccccc1` [SOFOSBUVIR], on Bile salt export pump, the AC50 amounted to 270 µM.
Take `OC[C@@H](O)[C@@H](O)[C@H](O)[C@H](O)CO` [MANNITOL]: the AC50 on Bile salt export pump is over 300 µM.
On the same count and under the same terms, to `Sc1ncnc2nc[nH]c12` [MERCAPTOPURINE ANHYDROUS] belongs over 300 µM.
On to `Cc1cc(O)cc(C)c1Cl` [CHLOROXYLENOL], for which, at Bile salt export pump, the half-maximal activity concentration (AC50) was over 300 µM.
For `CN(C)C(=O)Oc1ccc[n+](C)c1` [PYRIDOSTIGMINE], the AC50 on Bile salt export pump is over 300 µM.
Consider `O=C(NC[C@H]1CN(c2ccc(N3CCOCC3=O)cc2)C(=O)O1)c1ccc(Cl)s1` [RIVAROXABAN], for which the half-maximal activity concentration (AC50) was over 30 µM at Adenosine receptor A3; over 30 µM in assay [1]; over 30 µM in assay [3]; over 30 µM in assay [6]; over 30 µM at Melanocortin receptor 3; 100 µM at Bile salt export pump.
For the compound `O=C(COc1ccc(Cl)cc1)N1CCN(Cc2ccc3c(c2)OCO3)CC1` [FIPEXIDE], on Bile salt export pump, the half-maximal activity concentration (AC50) turned out to be 48 µM.
On the same count and under the same terms, to `CC(N/C(=N\C#N)Nc1ccncc1)C(C)(C)C` (stereo not drawn) [PINACIDIL ANHYDROUS] belongs 290 µM.
Same read-out and setting: to `C#C[C@]1(O)CC[C@H]2[C@@H]3CCC4=CC(=O)CC[C@@H]4[C@H]3CC[C@@]21CC` [LEVONORGESTREL] belongs 94 µM; to `CN1CCCC(CN2c3ccccc3Sc3ccccc32)C1` (stereo not drawn) [MEPAZINE], 100 µM.
Same read-out and setting: to `CCOC(=O)c1ccc(O)cc1` [ETHYLPARABEN] belongs over 300 µM.
On to `C[N+]1(C)[C@@H]2C[C@@H](OC(=O)[C@H](CO)c3ccccc3)C[C@H]1[C@@H]1O[C@@H]12` [METHSCOPOLAMINE], for which, at Bile salt export pump, the AC50 is over 300 µM.
